Laboratory results taken from ChEMBL document CHEMBL5543140 (J Med Chem, 2024).
The source made the active and inactive calls. No cut-off for these calls is given here.

Assays:
[1] = biological target: T1, 5-hydroxytryptamine receptor 1B (Homo sapiens, UniProt P28222); assay: Displacement of [3H]GR125743 from 5-HT1B receptor (unknown origin) assessed as inhibition binding at 10 uM relative to control
[2] = Tmax in male Sprague-Dawley rat CSF at 1 mg/kg, iv measured upto 8 hrs by LC-MS/MS analysis; format: ADME, organism-based, Cerebrospinal fluid
[3] = Ex vivo binding in C57BL/6J mouse brain frontal cortex assessed as specific binding [3H]Cimbi-36 at 1 mg/kg, sc measured after 160 mins by liquid scintillation counting analysis (reference value: 1092 +/- 53); format: functional; settings: 2.667 h
[4] = system: Hippocampus; assay: Induction of neuroplasticity in C57BL/6J mouse assessed as increase in IGF1 mRNA expression in brain hippocampus at 3 mg/kg, sc single dose by RT-PCR analysis; format: functional, organism-based
[5] = Half life in Wistar rat plasma at 5 mg/kg, po measured upto 48 hrs; format: ADME, organism-based
[6] = Ex vivo binding in C57BL/6J mouse brain frontal cortex assessed as inhibition of [3H]Cimbi-36 binding at 1 mg/kg, sc measured after 300 mins by liquid scintillation counting analysis (reference value: 0%); format: functional; settings: 5 h
[7] = biological target: Muscarinic acetylcholine receptor M1 (Homo sapiens) (UniProt P11229); assay: Displacement of [3H]-Pirenzepine from human muscarinic M1 expressed in CHO-K1 cells membrane at 10 uM incubated for 60 mins by microbeta liquid scintillation counting analysis; format: cell membranes; settings: Cell membrane
[8] = system: Mus musculus; assay: Induction of neuroplasticity in C57BL/6J mouse assessed as increase in c-Fos mRNA expression in brain frontal cortex at 3 mg/kg, sc single dose by RT-PCR analysis; format: functional, organism-based
[9] = system: Mus musculus; assay: Psychedelic effect in C57BL/6J mouse assessed as development of tolerance/ tachyphylaxis at 0.3 mg/kg, sc measured on day 4 by head-twitch responses test; format: functional, organism-based; settings: time 4.0 day
[10] = Tmax in beagle dog at 2 mg/kg, po measured upto 24 hrs; format: ADME, organism-based, Canis lupus familiaris; settings: in vivo
[11] = biological target: 5-hydroxytryptamine receptor 3A (Homo sapiens) (UniProt P46098); assay: Binding affinity to human 5-HT3 receptor (unknown origin) at 10 uM by radioligand displacement assay
[12] = system: Brain; assay: Drug binding in male Sprague-Dawley rat brain homogenate at 1 mg/kg, iv measured upto 8 hrs by LC-MS/MS analysis; format: ADME, organism-based; settings: in vivo
[13] = biological target: Alpha-2A adrenergic receptor (Homo sapiens) (UniProt P08913); assay: Agonist activity at human recombinant adrenergic alpha-2A receptor expressed in CHO-K1 cells co-transfected with 22F-Glosensor assessed as maximal inhibition of cAMP production measured after 30 mins incubation by Microbeta2Micro-plate counter analysis relative to clonidine; format: functional, cell-based; settings: filed as agonist
[14] = system: Mus musculus; assay: Psychedelic effect in C57BL/6J mouse assessed as number of 5-HT2A receptor dependent head-twitch responses by visual observation at 3 mg/kg, sc measured after 24 hrs; format: functional
[15] = Initial plasma concentration in beagle dog at 0.4 mg/kg, iv measured upto 24 hrs; format: ADME, organism-based, Canis lupus familiaris
[16] = system: Mus musculus; assay: Induction of neuroplasticity in C57BL/6J mouse assessed as increase in EGR2 mRNA expression in brain frontal cortex at 3 mg/kg, sc single dose by RT-PCR analysis; format: functional, organism-based
[17] = Metabolic stability in rat hepatocytes assessed as half life at 10 uM; format: ADME, cell-based, Hepatocyte
[18] = Renal clearance in Wistar rat plasma at 1 mg/kg, iv measured upto 48 hrs; format: ADME, organism-based
[19] = Ex vivo binding in C57BL/6J mouse brain frontal cortex assessed as inhibition of [3H]Cimbi-36 binding at 1 mg/kg, sc measured after 10 mins by liquid scintillation counting analysis (reference value: 0%); format: functional
[20] = Ex vivo binding in C57BL/6J mouse brain frontal cortex assessed as specific binding [3H]Cimbi-36 at 1 mg/kg, sc measured after 220 mins by liquid scintillation counting analysis (reference value: 1092 +/- 53); format: functional; settings: 3.667 h
[21] = biological target: T2, 5-hydroxytryptamine receptor 2A (Homo sapiens, UniProt P28223); assay: Binding affinity to human [125I]LSD-labeled 5-HT2A receptor expressed in HEK293 cell membrane incubated for 60 mins; format: cell membranes
[22] = AUCinf in Wistar rat plasma at 5 mg/kg, po measured upto 48 hrs; format: ADME, organism-based
[23] = biological target: T2, 5-hydroxytryptamine receptor 2A; assay: Agonist activity at human 5-HT2A receptor expressed in HEK293 cells assessed as IP2 production measured after 30 mins incubation by HTRF assay; format: functional, cell-based; settings: read-out: EC50
[24] = MRTinf in male Sprague-Dawley rat CSF at 1 mg/kg, iv measured upto 8 hrs by LC-MS/MS analysis; format: ADME, organism-based, Cerebrospinal fluid
[25] = system: Hippocampus; assay: Induction of neuroplasticity in C57BL/6J mouse assessed as increase in BDNF mRNA expression in brain hippocampus at 3 mg/kg, sc single dose by RT-PCR analysis; format: functional, organism-based
[26] = Ex vivo binding in C57BL/6J mouse brain frontal cortex assessed as inhibition of [3H]Cimbi-36 binding at 1 mg/kg, sc measured after 160 mins by liquid scintillation counting analysis (reference value: 0%); format: functional; settings: 2.667 h
[27] = biological target: T1, 5-hydroxytryptamine receptor 1B; assay: Displacement of [3H]5-CT from 5-HT1B receptor (unknown origin) assessed as inhibition binding
[28] = Volume of distribution in Wistar rat plasma at 1 mg/kg, iv measured upto 48 hrs; format: ADME, organism-based
[29] = Cmax in Wistar rat plasma at 1 mg/kg, iv measured upto 48 hrs; format: ADME, organism-based
[30] = AUClast in Wistar rat plasma at 5 mg/kg, po measured upto 48 hrs; format: ADME, organism-based
[31] = system: Mus musculus; assay: Psychedelic effect in C57BL/6J mouse assessed as induction of 5-HT2A receptor dependent maximal head-twitch responses by visual observation at 1 mg/kg, sc at 40 mins post- administration; format: functional, organism-based
[32] = biological target: 5-hydroxytryptamine receptor 6 (Homo sapiens, UniProt P50406); assay: Displacement of [3H]LSD from 5-HT6 receptor (unknown origin) assessed as inhibition binding at 10 uM relative to control
[33] = biological target: 5-hydroxytryptamine receptor 2B (Homo sapiens, UniProt P41595); assay: Binding affinity to human [125I]LSD-labeled 5-HT2B receptor expressed in CHO cell membrane incubated for 60 mins; format: cell membranes
[34] = Ex vivo binding in C57BL/6J mouse brain frontal cortex assessed as inhibition of [3H]Cimbi-36 binding at 1 mg/kg, sc measured after 100 mins by liquid scintillation counting analysis (reference value: 0%); format: functional; settings: 1.667 h
[35] = system: Mus musculus; assay: Psychedelic effect in C57BL/6J mouse assessed as induction of 5-HT2A receptor dependent maximal head-twitch responses by visual observation at 1 mg/kg, sc measured after 24 hrs; format: functional, organism-based
[36] = biological target: Alpha-2A adrenergic receptor (Homo sapiens, UniProt P08913); assay: Displacement of [3H]-rauwolscine from human recombinant adrenergic alpha-2A receptor expressed in CHO-K1 cells incubated for 60 mins by […] analysis relative to control; format: cell-based
Alpha-2A adrenergic receptor, sequence (P08913 whole entry): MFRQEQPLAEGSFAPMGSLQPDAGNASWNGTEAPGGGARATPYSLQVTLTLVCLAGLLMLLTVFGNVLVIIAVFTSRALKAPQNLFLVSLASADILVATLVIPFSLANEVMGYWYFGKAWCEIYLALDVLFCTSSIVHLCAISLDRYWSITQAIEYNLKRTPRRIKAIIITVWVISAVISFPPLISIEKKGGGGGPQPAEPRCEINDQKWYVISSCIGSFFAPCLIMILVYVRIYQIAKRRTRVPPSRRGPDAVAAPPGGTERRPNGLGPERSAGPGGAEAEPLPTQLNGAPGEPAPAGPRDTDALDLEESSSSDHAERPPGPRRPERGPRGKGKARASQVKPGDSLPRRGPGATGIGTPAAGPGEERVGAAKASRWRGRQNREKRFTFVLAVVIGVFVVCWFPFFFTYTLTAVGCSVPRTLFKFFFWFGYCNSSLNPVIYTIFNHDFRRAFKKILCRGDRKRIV

T1 sequence (P28222 whole entry): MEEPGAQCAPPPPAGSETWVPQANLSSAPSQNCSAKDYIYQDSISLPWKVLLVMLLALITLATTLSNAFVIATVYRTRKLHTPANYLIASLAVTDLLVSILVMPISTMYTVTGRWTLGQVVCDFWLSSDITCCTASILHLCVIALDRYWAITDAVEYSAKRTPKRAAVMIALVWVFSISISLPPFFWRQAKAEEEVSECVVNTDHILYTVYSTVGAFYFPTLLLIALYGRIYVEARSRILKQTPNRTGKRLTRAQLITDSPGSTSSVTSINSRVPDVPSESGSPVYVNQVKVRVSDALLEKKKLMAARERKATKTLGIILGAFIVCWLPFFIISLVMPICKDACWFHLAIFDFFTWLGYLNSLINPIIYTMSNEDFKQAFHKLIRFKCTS
T2 sequence (P28223 whole entry): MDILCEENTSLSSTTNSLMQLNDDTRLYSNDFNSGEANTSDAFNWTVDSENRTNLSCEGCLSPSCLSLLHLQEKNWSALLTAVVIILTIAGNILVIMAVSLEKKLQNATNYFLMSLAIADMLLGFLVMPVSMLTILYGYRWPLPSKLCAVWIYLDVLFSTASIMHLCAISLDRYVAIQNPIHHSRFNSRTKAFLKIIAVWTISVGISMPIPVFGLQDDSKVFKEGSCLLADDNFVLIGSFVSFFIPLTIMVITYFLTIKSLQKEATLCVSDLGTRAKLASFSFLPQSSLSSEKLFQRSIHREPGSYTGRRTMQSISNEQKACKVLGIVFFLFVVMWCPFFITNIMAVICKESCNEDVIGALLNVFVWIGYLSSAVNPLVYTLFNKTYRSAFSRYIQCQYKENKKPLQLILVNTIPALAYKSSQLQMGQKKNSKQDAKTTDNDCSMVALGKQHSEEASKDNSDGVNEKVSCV
Muscarinic acetylcholine receptor M1 (Homo sapiens), sequence (P11229 whole entry): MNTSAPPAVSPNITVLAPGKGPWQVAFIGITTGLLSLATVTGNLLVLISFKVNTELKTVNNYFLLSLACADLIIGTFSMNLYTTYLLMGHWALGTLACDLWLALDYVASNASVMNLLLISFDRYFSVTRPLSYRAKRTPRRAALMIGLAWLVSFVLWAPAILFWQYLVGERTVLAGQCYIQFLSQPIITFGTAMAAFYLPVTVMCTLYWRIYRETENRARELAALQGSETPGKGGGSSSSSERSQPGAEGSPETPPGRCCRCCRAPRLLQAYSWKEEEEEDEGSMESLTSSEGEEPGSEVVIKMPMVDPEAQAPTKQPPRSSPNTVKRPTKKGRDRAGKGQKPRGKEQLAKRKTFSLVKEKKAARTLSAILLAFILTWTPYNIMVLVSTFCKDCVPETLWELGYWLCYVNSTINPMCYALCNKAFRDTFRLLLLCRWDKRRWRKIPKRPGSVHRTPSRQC
5-hydroxytryptamine receptor 6, sequence (P50406 whole entry): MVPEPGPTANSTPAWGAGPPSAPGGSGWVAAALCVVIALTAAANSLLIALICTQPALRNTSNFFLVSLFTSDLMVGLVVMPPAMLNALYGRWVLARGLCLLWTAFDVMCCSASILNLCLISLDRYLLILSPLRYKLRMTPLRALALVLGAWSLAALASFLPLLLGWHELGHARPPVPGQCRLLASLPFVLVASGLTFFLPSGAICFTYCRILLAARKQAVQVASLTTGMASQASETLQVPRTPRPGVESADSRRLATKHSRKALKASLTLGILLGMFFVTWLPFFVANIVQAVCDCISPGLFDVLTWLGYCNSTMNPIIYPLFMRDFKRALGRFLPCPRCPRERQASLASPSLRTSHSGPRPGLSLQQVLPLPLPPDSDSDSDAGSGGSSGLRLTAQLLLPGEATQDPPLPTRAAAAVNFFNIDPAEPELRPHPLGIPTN
5-hydroxytryptamine receptor 3A (Homo sapiens), sequence (P46098 whole entry): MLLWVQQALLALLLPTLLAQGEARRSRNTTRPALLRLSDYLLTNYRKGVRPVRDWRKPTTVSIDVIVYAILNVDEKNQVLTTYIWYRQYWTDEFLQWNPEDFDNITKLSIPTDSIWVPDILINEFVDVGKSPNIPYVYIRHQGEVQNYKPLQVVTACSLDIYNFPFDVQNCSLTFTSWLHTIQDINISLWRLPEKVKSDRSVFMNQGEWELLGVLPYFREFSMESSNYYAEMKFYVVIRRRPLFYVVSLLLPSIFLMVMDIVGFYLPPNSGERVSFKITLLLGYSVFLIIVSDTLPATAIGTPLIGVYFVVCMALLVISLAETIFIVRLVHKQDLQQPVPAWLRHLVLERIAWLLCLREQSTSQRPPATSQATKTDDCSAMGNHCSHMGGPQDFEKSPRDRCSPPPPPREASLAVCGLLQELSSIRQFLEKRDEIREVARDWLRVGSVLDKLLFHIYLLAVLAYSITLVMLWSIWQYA
5-hydroxytryptamine receptor 2B, sequence (P41595 whole entry): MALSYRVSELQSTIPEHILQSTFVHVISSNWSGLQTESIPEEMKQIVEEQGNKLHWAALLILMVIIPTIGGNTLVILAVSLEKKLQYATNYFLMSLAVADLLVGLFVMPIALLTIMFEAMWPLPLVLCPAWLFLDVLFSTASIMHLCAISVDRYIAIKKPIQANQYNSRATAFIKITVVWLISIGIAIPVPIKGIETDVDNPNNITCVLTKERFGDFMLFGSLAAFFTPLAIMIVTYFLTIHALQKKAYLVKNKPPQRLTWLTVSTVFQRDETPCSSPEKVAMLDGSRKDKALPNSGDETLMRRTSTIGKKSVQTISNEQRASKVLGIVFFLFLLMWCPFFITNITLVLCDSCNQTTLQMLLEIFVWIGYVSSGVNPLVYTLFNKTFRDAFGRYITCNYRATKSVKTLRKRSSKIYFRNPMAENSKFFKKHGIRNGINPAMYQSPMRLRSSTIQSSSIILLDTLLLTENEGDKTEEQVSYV
Alpha-2A adrenergic receptor (Homo sapiens), sequence (P08913 whole entry): as the sequence (P08913 whole entry) above

## COc1cc([Se]C(F)(F)F)c(OC)cc1CCN.Cl
[1]
  inhibition: 83%
[2]
  Tmax: 4.98 min
[3]
  Activity: 736
[4]
  Activity: inactive
[5]
  half-life: 3.53 h
[6]
  inhibition in vivo at 1 mg/kg: 22%
[7]
  inhibition: 88%
[8]
  Activity: Active
[9]
  Activity: Active
[10]
  Tmax: 2 h
[11]
  Activity: inactive
[12]
  Activity: > 98%
[13]
  Emax: 56%
[14]
  Activity: 25
[15]
  C0 at 24 h: 121 ng/mL
[16]
  Activity: Active
[17]
  half-life at 10 µM: 16 h
[18]
  CL renal at 48 h: 1.13 mL/min/kg
[19]
  inhibition in vivo at 1 mg/kg: 9%
[20]
  Activity: 796
[21]
  Ki: 4.1 nM
[22]
  AUC(0-inf): 49.7 ng·h/mL
[23]
  EC50: 3.6 nM
[24]
  MRT inf: 1.51 h
[25]
  Activity: inactive
[26]
  inhibition in vivo at 1 mg/kg: 33%
[27]
  Ki: 949 nM
[28]
  Vd: 22.2 L/kg
[29]
  Cmax: 54.1 ng/mL
[30]
  AUC(0-t) at 48 h: 40.3 ng·h/mL
[31]
  Activity: Active
[32]
  inhibition: 90%
[33]
  Ki: 10 nM
[34]
  inhibition in vivo at 1 mg/kg: 25%
[35]
  Activity: inactive
[36]
  Ki: 72 nM
